Tested on: HMC3 cell line
Assay: Cell viability test (MTT assay)
Assay type: cell-based, Homo sapiens, human
Details: HMC3 cells, tested 0.039 to 100 µM
Protocol: The American Type Culture Collection's HMC3 (CRL-3304) cell line was grown in the MEM growth medium supplemented with 10% fetal bovine serum (FBS), 100 U/mL penicillin, and 100 µg/mL streptomycin (complete medium). The cells were kept at 37 °C in a 5% CO2 incubator and grown up to 100% confluence before use. In particular, regarding BCP, cells were treated with this substance at concentrations ranging from 0.039 to 100 µM (9 concentrations). Regarding LAC, cells were treated with this substance at concentrations ranging from 0.06 to 30 mM (9 concentrations). […] The MTT cell viability test was performed by seeding 1 × 10^4 cells/well in a 96-multiwell and grown at 37 °C and 5% CO2. The next day, cells were treated with different concentrations of BCP and LAC and their combinations (Mix). […] The formazane crystals were then solubilized with 100 µL DMSO/well for 15 min and the absorbance was measured at the wavelength of 570 nm using a Multiskan™ GO microplate reader (Thermo Scientific Microplate Spectrophotometer). Finally, the cytotoxicity of the substances in combination was evaluated starting from the maximum non-cytotoxic concentrations of each molecule (BCP and LAC alone) (Table 1).

In the case of C=C1CC/C=C(\C)CC[C@@H]2[C@@H]1CC2(C)C [BCP, (1R,4E,9S)-4,11,11-trimethyl-8-methylidenebicyclo[7.2.0]undec-4-ene], the maximum non-cytotoxic concentration is reported as 100 µM.
